Test results taken from patent publication US9422255B2, “S-imino-S-oxo-iminothiazine compounds as BACE inhibitors, compositions, and their use” (Merck Sharp & Dohme Corp., priority 2013, dated 2016).

What was measured:
[1] = biological target: soluble human BACE1 catalytic domain (Homo sapiens (Human), UniProt P56817); experiment: BACE1 HTRF FRET Assay; format: biochemical; conditions: Ki calculated from IC50 using the Cheng-Prusoff equation; QSY7-APPswe-Eu substrate, pH 5.0; read-out: BACE 1 Ki
soluble human BACE1 catalytic domain, sequence (P56817 75-416): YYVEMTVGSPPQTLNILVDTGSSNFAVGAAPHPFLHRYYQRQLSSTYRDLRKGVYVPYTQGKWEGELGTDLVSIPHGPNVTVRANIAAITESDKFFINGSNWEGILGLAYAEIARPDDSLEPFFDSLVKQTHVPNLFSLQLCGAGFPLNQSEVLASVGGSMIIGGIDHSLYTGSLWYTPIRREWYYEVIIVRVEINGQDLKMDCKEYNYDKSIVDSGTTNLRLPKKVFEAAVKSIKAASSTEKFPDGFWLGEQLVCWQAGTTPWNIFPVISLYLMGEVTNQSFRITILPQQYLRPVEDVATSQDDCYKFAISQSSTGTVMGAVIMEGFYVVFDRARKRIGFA
From the text: Na^+-Acetate pH 5.0; 1% Brij-35; Glycerol; Dimethyl Sulfoxide (DMSO); Recombinant human soluble BACE1 catalytic domain (>95% pure); APP Swedish mutant peptide substrate (QSY7-APP^swe-Eu): QSY7-EISEVNLDAEFC-Europium-amide.
A homogeneous time-resolved FRET assay can be used to determine IC50 values for inhibitors of the soluble human BACE1 catalytic domain. This assay monitors the increase of 620 nm fluorescence that resulted from BACE1 cleavage of an APPswedish APP^swe mutant peptide FRET substrate (QSY7-EISEVNLDAEFC-Europium-amide). This substrate contains an N-terminal QSY7 moiety that serves as a quencher of the C-terminal Europium fluorophore (620 nm Em). In the absence of enzyme activity, 620 nm fluorescence is low in the assay and increased linearly over 3 hours in the presence of uninhibited BACE1 enzyme Inhibition of BACE1 cleavage of the QSY7-APP^swe-Eu substrate by inhibitors is manifested as a suppression of 620 nm fluorescence.
Varying concentrations of inhibitors at 3× the final desired concentration in a volume of 10 ul are preincubated with purified human BACE1 catalytic domain (3 nM in 10 μl) for 30 minutes at 30° C. in reaction buffer containing 20 mM Na-Acetate pH 5.0, 10% glycerol, 0.1% Brij-35 and 7.5% DSMO. […]

[2] = biological target: purified human autoBACE-2 (Homo sapiens, UniProt Q9Y5Z0); experiment: BACE-2 Assay (BACE-HTRF assay); format: biochemical; conditions: Ki calculated from IC50 using the Cheng-Prusoff equation; QSY7-EISEVNLDAEFC-Eu-amide substrate, pH 5.0
purified human autoBACE-2, sequence (Q9Y5Z0 63-518 limits assumed): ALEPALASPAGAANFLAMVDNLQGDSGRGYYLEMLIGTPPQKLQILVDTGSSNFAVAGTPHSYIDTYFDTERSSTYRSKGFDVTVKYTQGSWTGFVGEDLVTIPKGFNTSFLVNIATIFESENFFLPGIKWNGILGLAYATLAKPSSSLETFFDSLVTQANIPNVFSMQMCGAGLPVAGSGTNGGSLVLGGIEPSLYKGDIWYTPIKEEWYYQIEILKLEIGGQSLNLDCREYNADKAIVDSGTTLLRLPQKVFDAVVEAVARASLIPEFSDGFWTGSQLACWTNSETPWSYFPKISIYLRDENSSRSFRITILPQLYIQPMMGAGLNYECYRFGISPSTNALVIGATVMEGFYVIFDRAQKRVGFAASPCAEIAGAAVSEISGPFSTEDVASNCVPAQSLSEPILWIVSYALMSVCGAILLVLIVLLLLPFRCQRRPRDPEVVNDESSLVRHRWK
Description: Inhibitor IC50s at purified human autoBACE-2 are determined in a time-resolved endpoint proteolysis assay that measures hydrolysis of the QSY7-[…]-Eu-amide FRET peptide substrate (BACE-HTRF assay). […] DMSO is present at 5% final concentration in the assay. Following laser excitation of sample wells at 320 nm, the fluorescence signal at 620 nm is collected for 400 ms following a 50 μs delay on a RUBYstar HTRF plate reader (BMG Labtechnologies). Raw RFU data is normalized to maximum (1.0 nM BACE/DMSO) and minimum (no enzyme/DMSO) RFU values. […] The Ki values are calculated from the IC50 using the Cheng-Prusoff equation.

- Ki [1]: 290 nM
- Ki [2]: 106 nM
SMILES: CN=S1(=O)C[C@@](C)(c2cc(NC(=O)c3ccc(Cl)cn3)ccc2F)NC(=N)[C@@]1(C)c1ccc(F)cc1 (some centres unmarked) [Example 10a]
